Values of other authors, collected in patent US10660869B2, “Lactate powder and method for the preparation thereof” (Purac Biochem B.V., priority 2012, dated 2020).

Conditions: 1000 mg of sample dissolved in 240 ml water

## CC(O)C(=O)[O-].CC(O)C(=O)[O-].O.O.O.O.O.[Ca+2] (stereo not shown) [PURACAL® PP/FCC, calcium lactate pentahydrate]
  typical dissolution time: 25 s
